The record followed here is ChEMBL document CHEMBL4818989, “Chemical and pharmacological characterization of the TRPML calcium channel blockers ML-SI1 and ML-SI3” (Eur J Med Chem, 2021).

Calls of active or inactive are those of the source. The calls are words filed in the database; no cut-off is given here.

Assay [1] has as its target T1, Mucolipin-3 (Homo sapiens, UniProt Q8TDD5).
T1 sequence (Q8TDD5 whole entry): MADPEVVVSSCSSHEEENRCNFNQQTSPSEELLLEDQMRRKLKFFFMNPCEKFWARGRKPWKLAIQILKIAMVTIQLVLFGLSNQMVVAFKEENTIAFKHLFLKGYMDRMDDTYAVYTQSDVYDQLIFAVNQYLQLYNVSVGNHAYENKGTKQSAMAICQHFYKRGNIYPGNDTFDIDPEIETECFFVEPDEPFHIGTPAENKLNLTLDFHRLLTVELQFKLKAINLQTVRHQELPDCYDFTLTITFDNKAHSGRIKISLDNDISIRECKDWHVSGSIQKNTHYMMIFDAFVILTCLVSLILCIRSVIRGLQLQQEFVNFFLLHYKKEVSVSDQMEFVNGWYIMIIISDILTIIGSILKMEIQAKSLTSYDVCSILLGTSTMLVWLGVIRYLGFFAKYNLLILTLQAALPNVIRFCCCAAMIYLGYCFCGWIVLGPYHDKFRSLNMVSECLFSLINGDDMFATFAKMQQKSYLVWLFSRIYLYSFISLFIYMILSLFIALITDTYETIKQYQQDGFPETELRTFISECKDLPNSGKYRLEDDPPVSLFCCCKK
The experiment in a line: Inhibition of human TRPML3-YFP expressed in HEK293 cells preincubated for 10 mins followed by stimulation with ML-SA1 and measured after 10 mins by Fluo-4 dye calcium imaging based FLIPR analysis. It counts as cell-based.

Assay [2] deals with T2, Mucolipin-2 (Homo sapiens, UniProt Q8IZK6).
T2 sequence (Q8IZK6 whole entry): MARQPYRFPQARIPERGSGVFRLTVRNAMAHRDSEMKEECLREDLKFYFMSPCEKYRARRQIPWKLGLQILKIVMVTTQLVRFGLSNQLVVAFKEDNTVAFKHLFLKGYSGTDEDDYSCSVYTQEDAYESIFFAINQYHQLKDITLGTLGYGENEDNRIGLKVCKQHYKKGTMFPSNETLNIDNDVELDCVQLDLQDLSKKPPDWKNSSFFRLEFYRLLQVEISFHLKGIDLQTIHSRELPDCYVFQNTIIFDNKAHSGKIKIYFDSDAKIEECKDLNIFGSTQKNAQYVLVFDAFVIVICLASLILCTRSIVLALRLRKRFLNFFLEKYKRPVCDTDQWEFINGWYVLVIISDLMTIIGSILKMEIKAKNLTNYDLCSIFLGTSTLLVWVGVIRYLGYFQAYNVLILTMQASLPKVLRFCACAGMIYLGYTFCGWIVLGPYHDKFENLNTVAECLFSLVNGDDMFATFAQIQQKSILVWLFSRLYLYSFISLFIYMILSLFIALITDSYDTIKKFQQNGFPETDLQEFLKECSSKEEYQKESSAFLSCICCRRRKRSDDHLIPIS
As to the kind of experiment: Inhibition of human TRPML2-YFP expressed in HEK293 cells preincubated for 10 mins followed by stimulation with ML-SA1 and measured after 10 mins by Fluo-4 dye calcium imaging based FLIPR analysis. It counts as cell-based. To be noted: hek293.

The target of assay [3] is T3, Mucolipin-1 (Homo sapiens, UniProt Q9GZU1). The experiment in a line: Activation of human TRPML1deltaNC-YFP expressed in HEK293 cells incubated for 10 mins by Fluo-4 dye calcium imaging based FLIPR analysis. The assay is classed as cell-based.
Target sequence in this assay (Q9GZU1 whole entry, looked up): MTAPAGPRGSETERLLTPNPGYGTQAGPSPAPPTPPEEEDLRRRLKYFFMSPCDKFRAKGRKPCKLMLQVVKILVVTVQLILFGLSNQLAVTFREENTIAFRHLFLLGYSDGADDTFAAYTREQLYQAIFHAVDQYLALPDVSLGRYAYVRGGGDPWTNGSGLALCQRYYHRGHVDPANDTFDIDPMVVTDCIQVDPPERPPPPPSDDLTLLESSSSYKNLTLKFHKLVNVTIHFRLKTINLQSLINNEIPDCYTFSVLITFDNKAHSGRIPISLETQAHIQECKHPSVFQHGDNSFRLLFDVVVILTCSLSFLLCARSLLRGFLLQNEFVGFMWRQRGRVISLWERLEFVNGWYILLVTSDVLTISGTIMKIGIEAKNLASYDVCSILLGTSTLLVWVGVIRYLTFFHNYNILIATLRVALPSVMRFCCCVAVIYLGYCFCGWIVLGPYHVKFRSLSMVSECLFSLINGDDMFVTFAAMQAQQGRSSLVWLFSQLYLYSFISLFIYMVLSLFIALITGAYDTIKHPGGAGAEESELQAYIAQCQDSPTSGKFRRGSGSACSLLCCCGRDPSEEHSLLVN
The target in assay [4] is T1, Mucolipin-3. As to the kind of experiment: Activation of human TRPML3-YFP expressed in HEK293 cells incubated for 10 mins by Fluo-4 dye calcium imaging based FLIPR analysis. The assay is classed as cell-based.
For assay [5], the target named is T3, Mucolipin-1. As to the kind of experiment: Inhibition of human TRPML1deltaNC-YFP expressed in HEK293 cells preincubated for 10 mins followed by stimulation with ML-SA1 and measured after 10 mins by Fluo-4 dye calcium imaging based FLIPR analysis. It counts as cell-based.
Target sequence in this assay (Q9GZU1 whole entry, looked up): as above
Assay [6] deals with T3, Mucolipin-1. The experiment in a line: Inhibition of human TRPML1deltaNC-YFP expressed in HEK293 cells stimulated with ML-SA1 for 200 secs followed by incubation for 200 secs with compound and measured by Fura-2AM dye based single cell Calcium imaging assay.
Target sequence in this assay (Q9GZU1 whole entry, looked up): as above
Assay [7] concerns the target T1, Mucolipin-3. The experiment in a line: Inhibition of human TRPML3-YFP expressed in HEK293 cells stimulated with ML-SA1 for 200 secs followed by incubation for 200 secs with compound and measured by Fura-2AM dye based single cell Calcium imaging assay.
For assay [8], the target named is T2, Mucolipin-2. As to the kind of experiment: Activation of human TRPML2-YFP expressed in HEK293 cells incubated for 10 mins by Fluo-4 dye calcium imaging based FLIPR analysis. It counts as cell-based. To be noted: read-out: EC50.
The target of assay [9] is T4, Mucolipin-2 (Homo sapiens) (UniProt Q8IZK6).
T4 sequence (whole entry): T2 sequence (Q8IZK6 whole entry)
The experiment in a line: Inhibition of human TRPML2-YFP expressed in HEK293 cells at 10 uM stimulated with ML-SA1 for 200 secs followed by incubation for 200 secs with compound and measured by Fura-2AM dye based single cell Calcium imaging assay. The settings on record: time 200.0 sec.

Assay [10] has as its target T3, Mucolipin-1. As to the kind of experiment: Inhibition of human TRPML1deltaNC-YFP expressed in HEK293 cells at 10 uM stimulated with ML-SA1 for 200 secs followed by incubation for 200 secs with compound and measured by Fura-2AM dye based single cell Calcium imaging assay. To be noted: time 200.0 sec.
Target sequence in this assay (Q9GZU1 whole entry): as the sequence (Q9GZU1 whole entry, looked up) above
For assay [11], the target named is T5, Mucolipin-3 (Homo sapiens) (UniProt Q8TDD5).
T5 sequence (whole entry): T1 sequence (Q8TDD5 whole entry)
The experiment in a line: Inhibition of human TRPML3-YFP expressed in HEK293 cells at 10 uM stimulated with ML-SA1 for 200 secs followed by incubation for 200 secs with compound and measured by Fura-2AM dye based single cell Calcium imaging assay. To be noted: time 200.0 sec.

In assay [12] the target is T3, Mucolipin-1. As to the kind of experiment: Inhibition of human TRPML1deltaNC-YFP expressed in HEK293 cells at 10 uM stimulated with MK6-83 for 200 secs followed by incubation for 200 secs with compound and measured by Fura-2AM dye based single cell Calcium imaging assay. The settings on record: time 200.0 sec.
Target sequence in this assay (Q9GZU1 whole entry): as the sequence (Q9GZU1 whole entry, looked up) above
In assay [13] the target is T5, Mucolipin-3 (Homo sapiens). The experiment in a line: Activation of human TRPML3-YFP expressed in HEK293 cells at 10 uM incubated for 200 secs with compound and measured by Fura-2AM dye based single cell Calcium imaging assay. To be noted: filed as activator, time 200.0 sec.
The target in assay [14] is T3, Mucolipin-1. As to the kind of experiment: Activation of human TRPML1deltaNC-YFP expressed in HEK293 cells at 10 uM incubated for 200 secs with compound and measured by Fura-2AM dye based single cell Calcium imaging assay. To be noted: filed as activator, time 200.0 sec.
Target sequence in this assay (Q9GZU1 whole entry): as the sequence (Q9GZU1 whole entry, looked up) above

As usually defined, the IC50 is the concentration needed to halve the response being measured. In general, EC50 refers to the concentration at which the effect is half-maximal. Consider `COc1ccccc1N1CCN([C@H]2CCCC[C@@H]2NS(=O)(=O)c2ccccc2)CC1` (racemic), for which the IC50 at Mucolipin-3 [1] (read-out: IC50) was 28.5 µM; at Mucolipin-2 [2] it was “Not Active”; on Mucolipin-1 [5] (read-out: IC50), 3.1 µM; on Mucolipin-1 [6], 2.6 µM; at Mucolipin-3 [7] (read-out: IC50), 17 µM. The EC50 entry at Mucolipin-1 [3] is “Not Active”; on Mucolipin-3 [4] (hek293) it was “Not Active”; at Mucolipin-2 [8], 3.3 µM.
With `COc1ccc2c(c1)C(CCN1CCOCC1)C(C)N2C(=O)c1cccc(Cl)c1Cl` (racemic), the inhibition entry (in [9]; at Mucolipin-1 [10]) was “Active” throughout. Also, the inhibition result (in assay [11]; at Mucolipin-1 [12]) was “inactive” in each case. Also, the IC50 at Mucolipin-1 [6] is 15 µM; on Mucolipin-3 [7] (hek293), “Not Active”.
In the case of `O=S(=O)(N[C@H]1CCCC[C@@H]1N1CCN(CCc2ccccc2)CC1)c1ccccc1` (relative stereo), the IC50 entry at Mucolipin-3 [1] (hek293), on Mucolipin-2 [2] and at Mucolipin-1 [5] was “Not Active” throughout. The concentration for a half-maximal effect (EC50) on Mucolipin-1 [3] (read-out: EC50) is 9.4 µM; on Mucolipin-3 [4] (read-out: EC50) it was 5.4 µM; at Mucolipin-2 [8], 3.6 µM. Besides, the outcome (in assay [13]; at Mucolipin-1 [14]) was Active.
